Reference: patent EP3345917A1, “ANTIPROTOZOAL COMPOUNDS” (Bacoba AG, priority 2017, dated 2018)
Read-outs that look alike come from different tables or passages of the source. Blank lines part the entries; values can stand above or below the compound they belong to. Non-standard residues stand in square brackets, D forms with d. Residues, ends and D or L forms follow the SMILES beside them. *: point of attachment. CH3O(CH2CH2O)11CH2CH2CO = COCCOCCOCCOCCOCCOCCOCCOCCOCCOCCOCCOCCC(=O)*; Hexenoyl(2E,4S-Me) = CC[C@H](C)/C=C/C(=O)*; Leu(3R-OH) = CC(C)[C@@H](O)[C@H](N)C(=O)O; NH((S)CH(Me)CH2NMe2) = C[C@@H](CN(C)C)N*; NH(1-CH2NMe2-cBu) = CN(C)CC1(N*)CCC1; Gly(octyl) = CCCCCCCC[C@H](N)C(=O)O; Oxazole4CO(2-Me) = Cc1nc(C(=O)*)co1; X3 = O=C(c1coc(-c2ccccc2)n1)*; Morpholide = C1CN(*)CCO1; X24 = CN1CC2(C1)CN(*)C2; X25 = CN(C)CC1(N*)CCCC1; X23 = CN1CCC12CN(*)C2; Aib = CC(C)(N)C(=O)O; βAla = NCCC(=O)O

Experiments:
[1] = test system: Trypanosoma cruzi trypomastigote forms (Tulahuen strain); assay: Intracellular Trypanosoma cruzi assay in L6-cells, beta-galactosidase/CPRG readout; format: cell-based
Description: (§1) Tests were done in triplicate.
Trypanosoma cruzi trypomastigote forms (Tulahuen strain C2C4 containing β-galactosidase (Lac Z) gene) were cultured as described by Buckner et al. (Buckner FS et al. Antimicrob Agents Ch1996; 40: 2592-2597) in rat myoblast cells (L6-cells). […] After incubation, the substrate chlorophenyl red β-D-galactopyranoside agent CPRG/Nonident was added to all wells and a color change was developed within 2 to 6 h. The plates were read photometrically at 540 nm (Molecular Devices). Data were evaluated and IC50 values calculated using Softmax Pro software (Molecular Devices).

Plasmodium falciparum = assay: 3H-hypoxanthine incorporation assay against Plasmodium falciparum; format: cell-based; details: In vitro inhibition, read-out: P.falc NF5
Description: as §1
IC50 values were calculated by linear interpolation.

[2] = test system: Axenically grown Leishmania donovani amastigotes (strain MHOM/ET/67/L82); assay: Axenic Leishmania donovani amastigote resazurin assay; format: cell-based
Description: as §1
Axenically grown Leishmania donovani amastigotes (strain MHOM/ET/67/L82) were grown and tests were done as previously described using the resazurin assay (Räz B et al. Acta Tropica 1997, 68:139-147). The plates were developed for 2-4 hours and read on a Spectramax Gemini XS micro plate fluorometer (Molecular Devices Cooperation) using an excitation wavelength of 536 nm and emission wavelength of 588 nm. Fluorescence development was measured and expressed as percentage of the negative control. […] Data were transferred to the graphic programme Softmax Pro (Molecular Devices), with which IC50 values were calculated.

[3] = test system: Trypanosoma brucei rhodesiense (STIB 900 strain); assay: Alamar Blue assay against Trypanosoma brucei rhodesiense grown in axenic medium; format: cell-based
Description: as §1
Trypanosoma brucei rhodesiense (STIB 900) were grown in axenic medium as described by Baltz et al. (1985) The samples were tested using the Alamar Blue assay protocol (Baltz T et al. EMBO J 1985; 4:1273-1277) to determine the 50% inhibitory concentration (IC50). […] Melarsoprol (Arsobal®, Sanofi-Aventis, Switzerland) was used as a reference drug (IC50= 0.03 ± 0.01 µM). Its purity was over 95 %, as was certified by the supplier. The IC50 values were calculated by using Softmax Pro software (Molecular Devices Cooperation, Sunnyvale, CA).

[4] = Cytotoxicity assay on L6-cells (Alamar Blue); details: rat, Cytotox L6, Cytotoxicity against rat myoblast cells (L6)
Description: Tests were done in triplicate. IC50 values against the parasites as well as cytotoxic effects against rat myoblast (L6-cells) were determined by serial dilution and repeated twice.
After 68 h of incubation under humidified 5% CO2 atmosphere, 10 µl of the Alamar blue marker was added to all wells. The plates were incubated for an additional 2 h. […] The IC50S were calculated by Softmax Pro software (Molecular Devices Cooperation, Sunnyvale, CA). […] Cytotoxicity was measured against rat myoblast cells (Cytotox L6).

[5] = In vitro inhibition, read-out: T.cruzi.
[6] = In vitro inhibition, read-out: L.don. ax
[7] = In vitro inhibition, read-out: T.b.rhod.

Structure (SMILES): CCCCCCCC[C@H](NC(=O)[C@@H]1CCCN1C(=O)/C=C/[C@@H](C)CC)C(=O)N[C@@H](CO)C(=O)NC(C)(C)C(=O)N[C@@H](CC(C)C)C(=O)N[C@@H](CC(C)C)C(=O)NC(C)(C)C(=O)NC(C)(C)C(=O)NCCC(=O)N[C@@H](C)CN(C)C (stereo in doubt) [Compound 5521, (2S)-N-[(1S)-1-[(1-{[(1S)-1-{[(1S)-1-{[1-({1-[(2-{[(2S)-1-(dimethylamino)propan-2-yl]carbamoyl}ethyl)carbamoyl]-1-methylethyl}carbamoyl)-1-methylethyl]carbamoyl}-3-methylbutyl]carbamoyl}-3-methylbutyl]carbamoyl}-1-methylethyl)carbamoyl]-2-hydroxyethyl]-2-{[(2S)-1-[(2E,4S)-4-methylhex-2-enoyl]pyrrolidin-2-yl]formamido}decanamide]
IC50 [1, 5]: 0.807 µM
IC50 (Plasmodium falciparum): 0.0085 µM
IC50 [2, 6]: 0.0036 µM
IC50 [3, 7]: 0.0013 µM
IC50 at 70 h [4]: 1.65 µM

Structure (SMILES): O=C(Cn1ccnc1[N+](=O)[O-])NCc1ccccc1 [Benznidazol]
IC50 ([1]; TULAHUEN, In vitro inhibition, intracellular Trypanosoma cruzi, read-out: T.cruzi.): 2.08 µM

Structure (SMILES): O=C(Cn1ccnc1[N+](=O)[O-])NCc1ccccc1 [Benznidazole, benznidazole]
IC50 ([1]; Trypanosoma cruzi, standard drug, T. cruzi Tulahuen C2C4 in L6-cells, read-out: IC50): 0.48 µg/mL

Structure (SMILES): CCCCCCCC[C@H](NC(=O)[C@@H]1CCCN1C(=O)/C=C/[C@@H](C)CC)C(=O)N[C@H](C(=O)NC(C)(C)C(=O)N[C@@H](CC(C)C)C(=O)N[C@@H](CC(C)C)C(=O)NC(C)(C)C(=O)NC(C)(C)C(=O)NCCC(=O)N[C@@H](C)CN(C)C)[C@@H](C)O [Compound 5520] ({Hexenoyl(2E,4S-Me)}-P[Gly(octyl)]T[Aib]LL[Aib][Aib][βAla]-{NH((S)CH(Me)CH2NMe2)})
IC50 at 70 h [4]: 0.93 µM

Structure (SMILES): CCCCCCCC[C@H](NC(=O)[C@@H]1CCCN1C(=O)/C=C/[C@@H](C)CC)C(=O)N[C@H](C(=O)NC(C)(C)C(=O)N[C@@H](CC(C)C)C(=O)N[C@@H](CC(C)C)C(=O)NC(C)(C)C(=O)NC(C)(C)C(=O)NCCC(=O)N1CCOCC1)[C@H](O)C(C)C [Compound 5572] ({Hexenoyl(2E,4S-Me)}-P[Gly(octyl)][Leu(3R-OH)][Aib]LL[Aib][Aib][βAla]-Morpholide)
IC50 at 70 h [4]: 1.42 µM

Structure (SMILES): CCCCCCCC[C@H](NC(=O)[C@@H]1CCCN1C(=O)c1coc(-c2ccccc2)n1)C(=O)N[C@@H](CC(C)C)C(=O)NC(C)(C)C(=O)N[C@@H](CC(C)C)C(=O)N[C@@H](CC(C)C)C(=O)NC(C)(C)C(=O)NC(C)(C)C(=O)NCCC(=O)N[C@@H](C)CN(C)C [Compound 5906, (2S)-N-[(1S)-1-[(1-{[(1S)-1-{[(1S)-1-{[1-({1-[(2-{[(2S)-1-(dimethylamino)propan-2-yl]carbamoyl}ethyl)carbamoyl]-1-methylethyl}carbamoyl)-1-methylethyl]carbamoyl}-3-methylbutyl]carbamoyl}-3-methylbutyl]carbamoyl}-1-methylethyl)carbamoyl]-3-methylbutyl]-2-{[(2S)-1-(2-phenyl-1,3-oxazole-4-carbonyl)pyrrolidin-2-yl]formamido}decanamide] (X3-P[Gly(octyl)]L[Aib]LL[Aib][Aib][βAla]-{NH((S)CH(Me)CH2NMe2)})
IC50 at 70 h [4]: 0.445 µM

Structure (SMILES): CCCCCCCC[C@H](NC(=O)[C@@H]1CCCN1C(=O)CCOCCOCCOCCOCCOCCOCCOCCOCCOCCOCCOCCOC)C(=O)N[C@@H](CC(C)C)C(=O)NC(C)(C)C(=O)N[C@@H](CC(C)C)C(=O)N[C@@H](CC(C)C)C(=O)NC(C)(C)C(=O)NC(C)(C)C(=O)NCCC(=O)N[C@@H](C)CN(C)C [Compound 6067, (2S)-N-[(1S)-1-[(1-{[(1S)-1-{[(1S)-1-{[1-({1-[(2-{[(2S)-1-(dimethylamino)propan-2-yl]carbamoyl}ethyl)carbamoyl]-1-methylethyl}carbamoyl)-1-methylethyl]carbamoyl}-3-methylbutyl]carbamoyl}-3-methylbutyl]carbamoyl}-1-methylethyl)carbamoyl]-3-methylbutyl]-2-{[(2S)-1-(2,5,8,11,14,17,20,23,26,29,32,35-dodecaoxaoctatriacontanoyl)pyrrolidin-2-yl]formamido}decanamide] ({CH3O(CH2CH2O)11CH2CH2CO}-P[Gly(octyl)]L[Aib]LL[Aib][Aib][βAla]-{NH((S)CH(Me)CH2NMe2)})
IC50 at 70 h [4]: 4.64 µM

Structure (SMILES): CCCCCCCC[C@H](NC(=O)[C@@H]1CCCN1C(=O)c1coc(C)n1)C(=O)N[C@@H](CC(C)C)C(=O)NC(C)(C)C(=O)N[C@@H](CC(C)C)C(=O)N[C@@H](CC(C)C)C(=O)NC(C)(C)C(=O)NC(C)(C)C(=O)NCCC(=O)NC1(CN(C)C)CCC1 [Compound 6253, (2S)-N-[(1S)-1-[(1-{[(1S)-1-{[(1S)-1-({1-[(1-{[2-({1-[(dimethylamino)methyl]cyclobutyl}carbamoyl)ethyl]carbamoyl}-1-methylethyl)carbamoyl]-1-methylethyl}carbamoyl)-3-methylbutyl]carbamoyl}-3-methylbutyl]carbamoyl}-1-methylethyl)carbamoyl]-3-methylbutyl]-2-{[(2S)-1-(2-methyl-1,3-oxazole-4-carbonyl)pyrrolidin-2-yl]formamido}decanamide] ({Oxazole4CO(2-Me)}-P[Gly(octyl)]L[Aib]LL[Aib][Aib][βAla]-{NH(1-CH2NMe2-cBu)})
IC50 [1, 5]: 0.0684 µM
IC50 [2, 6]: 46.8 µM
IC50 [3, 7]: < 0.0009 µM

Structure (SMILES): CCCCCCCC[C@H](NC(=O)[C@@H]1CCCN1C(=O)c1coc(C)n1)C(=O)N[C@@H](CC(C)C)C(=O)NC(C)(C)C(=O)N[C@@H](CC(C)C)C(=O)N[C@@H](CC(C)C)C(=O)NC(C)(C)C(=O)NC(C)(C)C(=O)NCCC(=O)NC1(CN(C)C)CCCC1 [Compound 6254, (2S)-N-[(1S)-1-[(1-{[(1S)-1-{[(1S)-1-({1-[(1-{[2-({1-[(dimethylamino)methyl]cyclopentyl}carbamoyl)ethyl]carbamoyl}-1-methylethyl)carbamoyl]-1methylethyl}carbamoyl)-3-methylbutyl]carbamoyl}-3-methylbutyl]carbamoyl}-1-methylethyl)carbamoyl]-3-methylbutyl]-2-{[(2S)-1-(2-methyl-1,3-oxazole-4-carbonyl)pyrrolidin-2-yl]formamido}decanamide] ({Oxazole4CO(2-Me)}-P[Gly(octyl)]L[Aib]LL[Aib][Aib][βAla]-X25)
IC50 [1, 5]: 0.0346 µM
IC50 [2, 6]: 13.9 µM
IC50 [3, 7]: < 0.0008 µM

Structure (SMILES): CCCCCCCC[C@H](NC(=O)[C@@H]1CCCN1C(=O)c1coc(C)n1)C(=O)N[C@@H](CC(C)C)C(=O)NC(C)(C)C(=O)N[C@@H](CC(C)C)C(=O)N[C@@H](CC(C)C)C(=O)NC(C)(C)C(=O)NC(C)(C)C(=O)NCCC(=O)N1CC2(CCN2C)C1 [Compound 6255, (2S)-2-{[(2S)-1-(2-methyl-1,3-oxazole-4-carbonyl)pyrrolidin-2-yl]formamido}-N-[(1S)-3-methyl-1-[(1-methyl-1-[(1S)-3-methyl-1-{[(1S)-3-methyl-1-{{[1-methyl-1-({1-methyl-1-[(3-{1-methyl-1,6-diazaspiro[3.3]heptan-6-yl}-3-oxopropyl)carbamoyl]ethyl}carbamoyl)ethyl]carbamoyl}butyl]carbamoyl}butyl]carbamoyl}ethyl)carbamoyl]butyl]decanamide] ({Oxazole4CO(2-Me)}-P[Gly(octyl)]L[Aib]LL[Aib][Aib][βAla]-X23)
IC50 [1, 5]: 3.71 µM
IC50 [2, 6]: 4.09 µM
IC50 [3, 7]: 0.461 µM
IC50 at 70 h [4]: 7.17 µM

Structure (SMILES): CCCCCCCC[C@H](NC(=O)[C@@H]1CCCN1C(=O)c1coc(C)n1)C(=O)N[C@@H](CC(C)C)C(=O)NC(C)(C)C(=O)N[C@@H](CC(C)C)C(=O)N[C@@H](CC(C)C)C(=O)NC(C)(C)C(=O)NC(C)(C)C(=O)NCCC(=O)N1CC2(CN(C)C2)C1 [Compound 6256, (2S)-2-{[(2S)-1-(2-methyl-1,3-oxazole-4-carbonyl)pyrrolidin-2-yl]formamido}-N-[(1S)-3-methyl-1-[(1-methyl-1-[(1S)-3-methyl-1-{[(1S)-3-methyl-1-{{[1-methyl-1-({1-methyl-1-[(3-{6-methyl-2,6-diazaspiro[3.3]heptan-2-yl}-3-oxopropyl)carbamoyl]ethyl}carbamoyl)ethyl]carbamoyl}butyl]carbamoyl}butyl]carbamoyl}ethyl)carbamoyl]butyl]decanamide] ({Oxazole4CO(2-Me)}-P[Gly(octyl)]L[Aib]LL[Aib][Aib][βAla]-X24)
IC50 [1, 5]: 4.01 µM
IC50 [2, 6]: 8.67 µM
IC50 [3, 7]: 0.316 µM
IC50 at 70 h [4]: > 8.06 µM

Structure (SMILES): Nc1nc(N)nc(Nc2ccc([As]3SCC(CO)S3)cc2)n1 (stereo not shown) [Melarsoprol, melarsoprol]
IC50 ([3]; read-out: T.b.rhod.): 0.007 µM
IC50 ([3]; reference drug, T. b. rhodesiense STIB 900, Alamar Blue, read-out: IC50): 0.03 ± 0.01 µM

IC50 ([2]; Leishmania donovani, reference drug, axenic L. donovani amastigotes, resazurin assay, read-out: IC50): 0.241 µg/mL
Structure (SMILES): CCCCCCCCCCCCCCCCOP(=O)([O-])OCC[N+](C)(C)C [Miltfosine]
